Measurements from patent publication US10093678B2, “Azaspiro derivatives as TRPM8 antagonists” (RaQualia Pharma Inc., priority 2014, dated 2018).

target: T1, human TRPM8 (Homo sapiens, UniProt Q7Z2W7); experiment: Menthol-induced Ca2+ influx in HEK293 cells stably expressing human TRPM8; type: cell-based; conditions: 30 microM menthol-induced Ca2+ influx, read-out: IC50 against TRPM8
T1 construct: expressed in transfected cells; host or cells: HEK293
Experimental: Measurement of the Menthol-Induced Ca^2+ Influx in HEK293 Cells Stably Expressing Human TRPM8
A cell-based Ca^2+ influx assay using HEK293 cells stably expressing human TRPM8 is used to identify the activity of compounds.
HEK293 cells stably expressing human TRPM8 are grown in T175 flasks at 37° C. in a 5% CO2 humidified incubator to about 80% confluence. Media composition consists of Dulbecco's Modified Eagle Medium (high glucose), 10% fetal calf serum (FCS), 100 units/mLPenicillin, 100 microg/mL Streptomycin and 600 microg/mL Geneticine. At 24 hours prior to assay, cells are seeded in poly-D-lysine coated 384-well plates (BD FALCON) at a density of 30,000 cells per well in culture medium and grown overnight in 5% CO2 at 37° C. On the assay day, growth media is removed and cells are loaded with 0.5 microM Fluo4-AM (Molecular Probes) and 0.005% Pluronic F-127 dissolved in assay buffer (Hank's balanced salt solution (HBSS), 19.4 mM HEPES pH7.4, 2.5 mM Probenecid) for 1 hour at room temperature. After washing with assay buffer, the cells are preincubated with various concentrations of the compounds for 5 min. The changes in intracellular calcium concentration by addition of 30 microM menthol are monitored by the cell imaging technology by Hamamatsu Photonics Functional Drug Screening System (FDSS).
The IC50 values for compounds of the present invention are determined from 11-point dose-response studies. Curves are generated using the average of duplicate wells for each data point. Finally, the IC50 values are calculated with the best-fit dose curve determined by XLfit (ID Business Solutions Ltd.).

T1 sequence (Q7Z2W7 whole entry): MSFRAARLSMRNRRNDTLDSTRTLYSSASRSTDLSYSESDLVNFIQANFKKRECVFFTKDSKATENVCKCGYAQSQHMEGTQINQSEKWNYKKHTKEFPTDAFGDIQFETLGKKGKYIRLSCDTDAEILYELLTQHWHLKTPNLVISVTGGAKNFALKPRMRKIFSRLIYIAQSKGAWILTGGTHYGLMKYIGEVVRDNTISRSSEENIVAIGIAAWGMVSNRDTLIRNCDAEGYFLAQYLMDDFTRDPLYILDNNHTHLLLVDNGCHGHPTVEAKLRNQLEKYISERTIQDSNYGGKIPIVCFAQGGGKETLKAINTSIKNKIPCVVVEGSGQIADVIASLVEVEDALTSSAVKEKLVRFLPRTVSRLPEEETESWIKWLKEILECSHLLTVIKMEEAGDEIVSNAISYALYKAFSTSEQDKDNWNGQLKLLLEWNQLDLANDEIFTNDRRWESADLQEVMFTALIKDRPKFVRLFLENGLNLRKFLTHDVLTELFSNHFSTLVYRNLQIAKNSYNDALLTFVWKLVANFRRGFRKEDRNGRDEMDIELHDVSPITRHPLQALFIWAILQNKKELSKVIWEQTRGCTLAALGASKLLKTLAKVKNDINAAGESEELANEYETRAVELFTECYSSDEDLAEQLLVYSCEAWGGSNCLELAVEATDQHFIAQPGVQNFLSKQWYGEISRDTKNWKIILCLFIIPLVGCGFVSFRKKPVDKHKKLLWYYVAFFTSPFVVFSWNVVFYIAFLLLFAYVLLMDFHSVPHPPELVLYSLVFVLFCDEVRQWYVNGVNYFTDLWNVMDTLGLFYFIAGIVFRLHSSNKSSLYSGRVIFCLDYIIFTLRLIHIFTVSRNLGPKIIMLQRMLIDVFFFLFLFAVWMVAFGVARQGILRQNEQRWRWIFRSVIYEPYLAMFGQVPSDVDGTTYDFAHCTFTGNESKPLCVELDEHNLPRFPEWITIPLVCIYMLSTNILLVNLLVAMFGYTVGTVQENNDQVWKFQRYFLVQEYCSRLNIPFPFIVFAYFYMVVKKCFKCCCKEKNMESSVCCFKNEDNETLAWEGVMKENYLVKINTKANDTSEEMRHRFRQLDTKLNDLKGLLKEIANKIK

Row | SMILES | IC50 [µM]
1 | Cc1cc(-n2c(C)cc(C(=O)CN3C(=O)NC4(CCC(F)(F)CC4)C3=O)c2C)no1 [Example 1-1, 3-(2-(2,5-dimethyl-1-(5-methylisoxazol-3-yl)-1H-pyrrol-3-yl)-2-oxoethyl)-8,8-difluoro-1,3-diazaspiro[4.5]decane-2,4-dione] | < 0.1
2 | Cc1cc(-n2c(C)cc(C(=O)CN3C(=O)OC4(CCC(F)(F)CC4)C3=O)c2C)no1 [Example 1-2] | < 0.1
3 | Cc1cc(-n2c(C)cc(C(=O)CN3C(=O)OC4(CCCCC4)C3=O)c2C)no1 [Example 1-3] | < 0.1
4 | Cc1cc(-n2c(C)cc(C(=O)CN3C(=O)OC4(CC5CCC4C5)C3=O)c2C)no1 (stereo not shown) [Example 1-4] | < 0.5
5 | Cc1cc(-n2c(C)cc(C(=O)CN3C(=O)OC4(CCC(C(F)(F)F)CC4)C3=O)c2C)no1 (stereo not shown) [Example 1-5] | < 0.5
6 | CCc1cc(C(=O)CN2C(=O)NC3(CCCCC3)C2=O)c(C)n1-c1cc(C)on1 [Example 1-14] | < 0.5
7 | Cc1nc(C(=O)CN2C(=O)NC3(CCCCC3)C2=O)c(C)n1-c1ccccc1 [Example 2-1] | < 0.1
8 | Cc1nc(C(=O)CN2C(=O)NC3(CCC(F)(F)CC3)C2=O)c(C)n1-c1ccccc1 [Example 2-2] | < 0.1
9 | Cc1nc(C(=O)CN2C(=O)OC3(CCC(F)(F)CC3)C2=O)c(C)n1-c1ccccc1 [Example 2-3] | < 0.1
10 | Cc1nc(C(=O)CN2C(=O)OC3(CCCCC3)C2=O)c(C)n1-c1ccccc1 [Example 2-4] | < 0.1
11 | Cc1nc(C(=O)CN2CC3(CCC(F)(F)CC3)OC2=O)c(C)n1-c1ccccc1 [Example 2-7] | < 0.5
12 | Cc1cccc(-n2c(C)nc(C(=O)CN3C(=O)CC4(CCC(F)(F)CC4)C3=O)c2C)c1 [Example 2-8] | < 0.5
13 | Cc1nc(C(=O)CN2C(=O)NC3(CCC(F)(F)CC3)C2=O)c(C)n1-c1cccc(F)c1 [Example 2-11] | < 0.1
14 | Cc1cccc(-n2c(C)nc(C(=O)CN3C(=O)NC4(CCC(F)(F)CC4)C3=O)c2C)c1 [Example 2-12] | < 0.1
15 | Cc1cccc(-n2c(C)nc(C(=O)CN3C(=O)NC4(CCCCC4)C3=O)c2C)c1 [Example 2-13] | < 0.1
16 | Cc1nc(C(=O)CN2C(=O)NC3(CCC(F)(F)CC3)C2=O)c(C)n1-c1cccc(Cl)c1 [Example 2-14] | < 0.1
17 | Cc1nc(C(=O)CN2C(=O)NC3(CCCCC3)C2=O)c(C)n1-c1cccc(Cl)c1 [Example 2-15] | < 0.1
18 | Cc1cccc(-n2c(C)nc(C(=O)CN3CC4(CCC(F)(F)CC4)OC3=O)c2C)c1 [Example 2-17] | < 0.5
19 | Cc1nc(C(=O)CN2CC3(CCC(F)(F)CC3)OC2=O)c(C)n1-c1cccc(F)c1 [Example 2-18] | < 0.5
20 | Cc1cc(-n2c(C)cc(C(=O)CN3C(=O)NC4(CCC(F)(F)CC4)C3=O)c2C)on1 [Example 3-1] | < 0.1
21 | Cc1cncc(-n2c(C)cc(C(=O)CN3C(=O)NC4(CCC(F)(F)CC4)C3=O)c2C)n1 [Example 3-2] | < 0.1
22 | Cc1cncc(-n2c(C)cc(C(=O)CN3C(=O)NC4(CCCCC4)C3=O)c2C)n1 [Example 3-3] | < 0.1
23 | Cc1cc(C(=O)CN2C(=O)NC3(CCC(F)(F)CC3)C2=O)c(C)n1-c1ccccc1 [Example 3-4] | < 0.1
24 | Cc1cccc(-n2c(C)cc(C(=O)CN3C(=O)NC4(CCC(F)(F)CC4)C3=O)c2C)c1 [Example 3-5] | < 0.1
25 | Cc1cccc(-n2c(C)cc(C(=O)CN3C(=O)NC4(CCCCC4)C3=O)c2C)c1 [Example 3-6] | < 0.1
26 | Cc1cc(C(=O)CN2C(=O)NC3(CCC(F)(F)CC3)C2=O)c(C)n1-c1cccc(Cl)c1 [Example 3-7] | < 0.1

Row | SMILES | IC50 [µM]
27 | COC(=O)c1cccc(-n2c(C)cc(C(=O)CN3C(=O)NC4(CCCCC4)C3=O)c2C)c1 [Example 3-8] | < 0.1
28 | Cc1cc(C(=O)CN2C(=O)NC3(CCC(F)(F)CC3)C2=O)c(C)n1-c1cccnc1 [Example 3-9] | < 0.1
29 | Cc1cncc(-n2c(C)cc(C(=O)CN3C(=O)NC4(CC5CCC4C5)C3=O)c2C)c1 (stereo not shown) [Example 3-10] | < 0.1
30 | Cc1cncc(-n2c(C)cc(C(=O)CN3C(=O)NC4(CCCCC4)C3=O)c2C)c1 [Example 3-11] | < 0.1
31 | Cc1cc(C(=O)CN2C(=O)NC3(CCC(F)(F)CC3)C2=O)c(C)n1-c1ccccn1 [Example 3-12] | < 0.1
32 | Cc1cccc(-n2c(C)cc(C(=O)CN3C(=O)NC4(CCC(F)(F)CC4)C3=O)c2C)n1 [Example 3-13] | < 0.1
33 | Cc1cccc(-n2c(C)cc(C(=O)CN3C(=O)NC4(CCCCCC4)C3=O)c2C)n1 [Example 3-14] | < 0.1
34 | Cc1cccc(-n2c(C)cc(C(=O)CN3C(=O)NC4(CCC(C(F)(F)F)CC4)C3=O)c2C)n1 (stereo not shown) [Example 3-15] | < 0.1
35 | Cc1cc(C)nc(-n2c(C)cc(C(=O)CN3C(=O)NC4(CCC(F)(F)CC4)C3=O)c2C)c1 [Example 3-16] | < 0.1
36 | Cc1cnc(-n2c(C)cc(C(=O)CN3C(=O)NC4(CCC(F)(F)CC4)C3=O)c2C)s1 [Example 3-17] | < 0.1
37 | Cc1cc(C(=O)CN2C(=O)NC3(CCC(F)(F)CC3)C2=O)c(C)n1-c1noc2ccccc12 [Example 3-18] | < 0.1
38 | Cc1cc(C(=O)CN2C(=O)NC3(CCC(F)(F)CC3)C2=O)c(C)n1-c1cncc2ccccc12 [Example 3-19] | < 0.1
39 | Cc1cc(C(=O)CN2C(=O)NC3(CCC(F)(F)CC3)C2=O)c(C)n1-c1ccc2ccccc2n1 [Example 3-20] | < 0.5
40 | Cc1cc(C(=O)CN2C(=O)NC3(CCC(F)(F)CC3)C2=O)c(C)n1-c1nnn(C)n1 [Example 3-21] | < 0.5
41 | Cc1cc(C(=O)CN2C(=O)NC3(CCCCC3)C2=O)c(C)n1-c1cccc(OCC2CC2)n1 [Example 3-28, 3-(2-(1-(6-(cyclopropylmethoxy)pyridin-2-yl)-2,5-dimethyl-1H-pyrrol-3-yl)-2-oxoethyl)-1,3-diazaspiro[4.5]decane-2,4-dione] | < 0.5
42 | Cc1cc(C(=O)CN2C(=O)NC3(CCCCC3)C2=O)c(C)n1-c1cccc(N2CCCC(O)C2)n1 (stereo not shown) [Example 3-29, 3-(2-(1-(6-(3-hydroxypiperidin-1-yl)pyridin-2-yl)-2,5-dimethyl-1H-pyrrol-3-yl)-2-oxoethyl)-1,3-diazaspiro[4.5]decane-2,4-dione] | < 0.5
43 | Cc1c(C(=O)CN2C(=O)NC3(CCC(F)(F)CC3)C2=O)nn(C)c1-c1ccccc1 [Example 4-1] | < 0.1
44 | Cc1c(C(=O)CN2C(=O)NC3(CCCCC3)C2=O)nn(C)c1-c1ccccc1 [Example 4-2] | < 0.1
45 | Cc1cc(C(=O)CN2C(=O)NC3(CCC(F)(F)CC3)C2=O)n(C)c1-c1ccccc1 [Example 4-3] | < 0.1
46 | Cn1c(-c2ccccc2)cnc1C(=O)CN1C(=O)NC2(CCC(F)(F)CC2)C1=O [Example 4-4] | < 0.1
47 | Cc1nc(C(=O)CN2C(=O)NC3(CCC(F)(F)CC3)C2=O)sc1-c1ccccc1 [Example 4-5] | < 0.1
48 | Cc1c(C(=O)CN2C(=O)NC3(CCC(F)(F)CC3)C2=O)ccn1-c1ccccc1 [Example 4-6] | < 0.1
49 | Cc1c(C(=O)CN2C(=O)NC3(CCC(F)(F)CC3)C2=O)nn(C)c1-c1cccnc1 [Example 4-7] | < 0.5
50 | Cc1c(C(=O)CN2C(=O)NC3(CCCCC3)C2=O)nn(C)c1-c1cccnc1 [Example 4-8] | < 0.5
51 | Cc1c(C(=O)CN2CC3(CCC(F)(F)CC3)OC2=O)ccn1-c1ccccc1 [Example 4-9] | < 0.5
52 | Cn1c(C(=O)CN2C(=O)NC3(CCC(F)(F)CC3)C2=O)cnc1-c1ccccc1 [Example 4-11] | < 0.5
